Test system: not listed separately
Test: Pharmacokinetic profiling, plasma and lung levels after intratracheal or inhalation delivery in the mouse
Type: in vivo
Details: mouse; IT dosing at 2 mg/kg (FIG. 2); after 48 h

Row | level in the lung after 48 h | Compound
1 | very low | COC(=O)c1nc(C(F)(F)F)n2c1CN(C(=O)C[C@H](N)Cc1cc(F)c(F)cc1F)CC2 [retagliptin, reference compound]

Biological target: T1, Human DPP4 (Homo sapiens, UniProt P27487)
T1 construct: purchased Sigma-Aldrich MAK088
Test: DPP4 activity assay (DPP4 Activity Assay Kit, fluorescent substrate)
Type: biochemical
Details: Human DPP4; read-out: DPP4 inhibition IC50 [nM])
Protocol: DPP4 activity assay. Human DPP4 activity assay data were obtained using a DPP4 Activity Assay Kit (Sigma-Aldrich, MAK088) according to the manufacturer's instructions. Briefly, 10 μL of DPP4 Assay Buffer were transferred per well in low volume 384-well plates before transferring 10 μL of test compound dissolved in DPP4 assay buffer. To each well was added 5 μL of Master Reaction Mix containing a fluorescent substrate that becomes fluorescent upon cleavage by the enzyme. Fluorescence intensity measurements were recorded at 1-minute time intervals over the course of 20 minutes using an Envision Multimode Plate Reader (PerkinElmer).

T1 sequence (P27487 whole entry): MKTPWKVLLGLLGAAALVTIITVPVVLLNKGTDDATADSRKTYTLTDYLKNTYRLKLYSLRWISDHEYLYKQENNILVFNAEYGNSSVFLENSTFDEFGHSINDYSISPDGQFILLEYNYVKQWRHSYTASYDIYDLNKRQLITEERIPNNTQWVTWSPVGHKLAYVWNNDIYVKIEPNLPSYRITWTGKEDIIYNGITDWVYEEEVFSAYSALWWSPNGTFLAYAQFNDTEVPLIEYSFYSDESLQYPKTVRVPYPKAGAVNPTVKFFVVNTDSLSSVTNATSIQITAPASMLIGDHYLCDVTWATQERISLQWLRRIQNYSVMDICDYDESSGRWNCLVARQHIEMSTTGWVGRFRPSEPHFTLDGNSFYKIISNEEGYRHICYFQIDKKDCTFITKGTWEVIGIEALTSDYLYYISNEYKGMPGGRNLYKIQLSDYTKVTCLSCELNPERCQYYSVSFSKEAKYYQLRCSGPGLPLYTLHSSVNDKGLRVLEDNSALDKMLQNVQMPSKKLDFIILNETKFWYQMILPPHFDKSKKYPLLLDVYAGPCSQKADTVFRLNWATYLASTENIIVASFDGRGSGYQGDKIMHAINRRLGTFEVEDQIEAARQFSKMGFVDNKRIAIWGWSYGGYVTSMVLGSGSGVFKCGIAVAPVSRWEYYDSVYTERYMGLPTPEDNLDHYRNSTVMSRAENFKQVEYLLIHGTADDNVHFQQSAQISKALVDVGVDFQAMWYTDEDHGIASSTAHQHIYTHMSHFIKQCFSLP

Row | Compound | IC50 [nM]
2 | N#C[C@@H]1CCCN1C(=O)CN[C@@]12CC3C[C@@H](C1)C[C@](OCCOCCn1cc(CNC[C@H](O)[C@@H](O)[C@H](O)[C@H](O)CO)nn1)(C3)C2 [Compound 14, (2S)-1-(((1S,3R,5S)-3-(2-(2-(4-((((2S,3R,4R,5R)-2,3,4,5,6-pentahydroxyhexyl)amino)methyl)-1H-1,2,3-triazol-1-yl)ethoxy)ethoxy)adamantan-1-yl)glycyl)pyrrolidine-2-carbonitrile] | 8.2
3 | CC#CCn1c(N2CCC[C@@H](N)C2)nc2c1c(=O)n(Cc1ccc(Cl)cc1C(=O)NCCCCC)c(=O)n2C [Compound 40, (R)-2-((8-(3-aminopiperidin-1-yl)-7-(but-2-yn-1-yl)-3-methyl-2,6-dioxo-2,3,6,7-tetrahydro-1H-purin-1-yl)methyl)-5-chloro-N-pentylbenzamide] | 700
4 | CC#CCn1c(N2CCC[C@@H](N)C2)nc2c1c(=O)n(Cc1nc(F)ccc1C(=O)O)c(=O)n2C [Compound 29] | 7.1
5 | CCCCCCN(CCc1ccc(OCCNC(=O)OCCOC23CC4C[C@@H](CC(NCC(=O)N5CCC[C@H]5C#N)(C4)C2)C3)cc1)C[C@H](O)[C@@H](O)[C@H](O)[C@H](O)CO (stereo in doubt) [Compound 13, 2-(((1R,3S,5S)-3-((2-((S)-2-cyanopyrrolidin-1-yl)-2-oxoethyl)amino)adamantan-1-yl)oxy)ethyl (2-(4-(2-(hexyl((2S,3R,4R,5R)-2,3,4,5,6-pentahydroxyhexyl)amino)ethyl)phenoxy)ethyl)carbamate] | 23
6 | CCN(Cc1ccc(CNC(=O)OCCOCCO[C@@]23CC4C[C@@H](C[C@@](NCC(=O)N5CCC[C@H]5C#N)(C4)C2)C3)cc1)C[C@H](O)[C@@H](O)[C@H](O)[C@H](O)CO [Compound 12, 2-(2-(((1R,3S,5S)-3-((2-((S)-2-cyanopyrrolidin-1-yl)-2-oxoethyl)amino)adamantan-1-yl)oxy)ethoxy)ethyl (4-((ethyl((2S,3R,4R,5R)-2,3,4,5,6-pentahydroxyhexyl)amino)methyl)benzyl)carbamate] | 7.9
7 | CC#CCn1c(N2CCC[C@@H](N)C2)nc2c1c(=O)n(Cc1ccccc1B(O)O)c(=O)n2C [Compound 27, (R)-(2-((8-(3-aminopiperidin-1-yl)-7-(but-2-yn-1-yl)-3-methyl-2,6-dioxo-2,3,6,7-tetrahydro-1H-purin-1-yl)methyl)phenyl)boronic Acid] | 5.3
8 | N#C[C@@H]1CCCN1C(=O)CN[C@@]12CC3C[C@@H](C1)C[C@](OCCOCCN(C[C@H](O)[C@@H](O)[C@H](O)[C@H](O)CO)C[C@H](O)[C@@H](O)[C@H](O)[C@H](O)CO)(C3)C2 [Compound 10, (2S)-1-(((1S,3R,5S)-3-(2-(2-(bis((2S,3R,4R,5R)-2,3,4,5,6-pentahydroxyhexyl)amino)ethoxy)ethoxy)adamantan-1-yl)glycyl)pyrrolidine-2-carbonitrile] | 20.8
9 | N[C@@H](CC(=O)N1CCn2c(C(F)(F)F)nc(C(=O)OCCCCN3CCOCC3)c2C1)Cc1cc(F)c(F)cc1F [Compound 54, (R)-4-(1-((4-morpholinobutoxy)carbonyl)-3-(trifluoromethyl)-5,6-dihydroimidazo[1,5-a]pyrazin-7(8H)-yl)-4-oxo-1-(2,4,5-trifluorophenyl)butan-2-aminium (2R,3R)-3-carboxy-2,3-dihydroxypropanoate] | 0.5
10 | N#C[C@@H]1CCCN1C(=O)CN[C@@]12CC3C[C@@H](C1)C[C@](OCCOCCn1cc(CN(C[C@H](O)[C@@H](O)[C@H](O)[C@H](O)CO)C[C@H](O)[C@@H](O)[C@H](O)[C@H](O)CO)nn1)(C3)C2 [Compound 9, (2S)-1-(((1S,3R,5S)-3-(2-(2-(4-((bis((2S,3R,4R,5R)-2,3,4,5,6-pentahydroxyhexyl)amino)methyl)-1H-1,2,3-triazol-1-yl)ethoxy)ethoxy)adamantan-1-yl)glycyl)pyrrolidine-2-carbonitrile] | 10.8
11 | CCCCCCN(Cc1cn(CCOCCOC23CC4CC(CC(NCC(=O)N5CCC[C@H]5C#N)(C4)C2)C3)nn1)C[C@H](O)[C@@H](O)[C@H](O)[C@H](O)CO [Compound 15] | 17.4
12 | N#C[C@@H]1C[C@@H]2C[C@@H]2N1C(=O)[C@@H](N)[C@]12CC3C[C@H](C[C@](OCCO)(C3)C1)C2 [Compound 16, (1S,3S,5S)-2-((2S)-2-amino-2-((1S,3R,5S)-3-(2-hydroxyethoxy)adamantan-1-yl)acetyl)-2-azabicyclo[3.1.0]hexane-3-carbonitrile] | 7.9

Results, then the compound that gave them:

Row | IC50 [nM] | Compound
13 | 238 | CCCCCCCC(=O)OC12CC3C[C@@H](CC(NCC(=O)N4CCC[C@H]4C#N)(C3)C1)C2 (stereo in doubt) [Compound 24]
14 | > 10000 | CC#CCn1c(N2CCC[C@@H](N)C2)nc2c1c(=O)n(Cc1ccc(Cl)cc1C(=O)OCCCCCC)c(=O)n2C [Compound 38, hexyl (R)-2-((8-(3-aminopiperidin-1-yl)-7-(but-2-yn-1-yl)-3-methyl-2,6-dioxo-2,3,6,7-tetrahydro-1H-purin-1-yl)methyl)-5-chlorobenzoate]
15 | 31 | CCCCCCCOC12CC3C[C@@H](CC(NCC(=O)N4CCC[C@H]4C#N)(C3)C1)C2 (stereo in doubt) [Compound 6]
16 | 11.4 | CC#CCn1c(N2CCC[C@@H](N)C2)nc2c1c(=O)n(Cc1nc(NCCCC)ccc1C(=O)O)c(=O)n2C [Compound 33]
17 | 41 | CC#CCn1c(N2CCC[C@@H](N)C2)nc2c1c(=O)n(Cc1nc(NCCCCCCCn3cc(CN(C[C@H](O)[C@@H](O)[C@H](O)[C@H](O)CO)C[C@H](O)[C@@H](O)[C@H](O)[C@H](O)CO)nn3)ccc1C(=O)OC)c(=O)n2C [Compound 34, methyl 2-((8-((R)-3-aminopiperidin-1-yl)-7-(but-2-yn-1-yl)-3-methyl-2,6-dioxo-2,3,6,7-tetrahydro-1H-purin-1-yl)methyl)-6-((7-(4-((bis((2S,3R,4R,5R)-2,3,4,5,6-pentahydroxyhexyl)amino)methyl)-1H-1,2,3-triazol-1-yl)heptyl)amino)nicotinate]
18 | 0.54 | N[C@@H](CC(=O)N1CCn2c(C(F)(F)F)nc(C(=O)NCCOCCN3CCOCC3)c2C1)Cc1cc(F)c(F)cc1F [Compound 50, (R)-4-(1-((2-(2-morpholinoethoxy)ethyl)carbamoyl)-3-(trifluoromethyl)-5,6-dihydroimidazo[1,5-a]pyrazin-7(8H)-yl)-4-oxo-1-(2,4,5-trifluorophenyl)butan-2-aminium (2R,3R)-3-carboxy-2,3-dihydroxypropanoate]
19 | 26 | CCCCCCCSC12CC3C[C@@H](CC(NCC(=O)N4CCC[C@H]4C#N)(C3)C1)C2 [Compound 2, (2S)-1-((3-(heptylthio)adamantan-1-yl)glycyl)pyrrolidine-2-carbonitrile]
20 | 0.11 | N[C@@H](CC(=O)N1CCn2c(C(F)(F)F)nc(C(=O)OCCOCCOCCn3cc(CNC[C@H](O)[C@@H](O)[C@H](O)[C@H](O)CO)nn3)c2C1)Cc1cc(F)c(F)cc1F [Compound 44, 2-(2-(2-(4-((((2S,3R,4R,5R)-2,3,4,5,6-pentahydroxyhexyl)amino)methyl)-1H-1,2,3-triazol-1-yl)ethoxy)ethoxy)ethyl 7-((R)-3-amino-4-(2,4,5-trifluorophenyl)butanoyl)-3-(trifluoromethyl)-5,6,7,8-tetrahydroimidazo[1,5-a]pyrazine-1-carboxylate]
21 | 47.8 | CCCCCCN(Cc1cn(CCOCCOC23CC4C[C@H](C2)CC([C@H](N)C(=O)N2[C@H](C#N)C[C@@H]5C[C@@H]52)(C4)C3)nn1)C[C@H](O)[C@@H](O)[C@H](O)[C@H](O)CO [Compound 20]
22 | 2.2 | CCCCCCN(Cc1cn(CCOCCOCCNC(=O)c2nc(C(F)(F)F)n3c2CN(C(=O)C[C@H](N)Cc2cc(F)c(F)cc2F)CC3)nn1)CC(O)C(O)C(O)C(O)CO (stereo partly drawn) [Compound 47, 7-((R)-3-amino-4-(2,4,5-trifluorophenyl)butanoyl)-N-(2-(2-(2-(4-((hexyl(2,3,4,5,6-pentahydroxyhexyl)amino)methyl)-1H-1,2,3-triazol-1-yl)ethoxy)ethoxy)ethyl)-3-(trifluoromethyl)-5,6,7,8-tetrahydroimidazo[1,5-a]pyrazine-1-carboxamide]
23 | 34.3 | CC#CCn1c(N2CCC[C@@H](N)C2)nc2c1c(=O)n(Cc1nc(NCCCCCCCn3cc(CN(C[C@H](O)[C@@H](O)[C@H](O)[C@H](O)CO)C[C@H](O)[C@@H](O)[C@H](O)[C@H](O)CO)nn3)ccc1C(=O)O)c(=O)n2C [Compound 35, 2-((8-((R)-3-aminopiperidin-1-yl)-7-(but-2-yn-1-yl)-3-methyl-2,6-dioxo-2,3,6,7-tetrahydro-1H-purin-1-yl)methyl)-6-((7-(4-((bis((2S,3R,4R,5R)-2,3,4,5,6-pentahydroxyhexyl)amino)methyl)-1H-1,2,3-triazol-1-yl)heptyl)amino)nicotinic acid]
24 | 1 | [N-]=[N+]=NCCOCCOCCNC(=O)c1nc(C(F)(F)F)n2c1CN(C(=O)C[C@H](N)Cc1cc(F)c(F)cc1F)CC2 [Compound 43]
25 | 0.82 | N[C@@H](CC(=O)N1CCn2c(C(F)(F)F)nc(C(=O)OCCN3CCOCC3)c2C1)Cc1cc(F)c(F)cc1F [Compound 49, (R)-4-(1-((2-morpholinoethoxy)carbonyl)-3-(trifluoromethyl)-5,6-dihydroimidazo[1,5-a]pyrazin-7(8H)-yl)-4-oxo-1-(2,4,5-trifluorophenyl)butan-2-aminium (2R,3S)-3-carboxy-2,3-dihydroxypropanoate]
26 | 7.7 | CCCCCCN(Cc1cn(CCOCCOCCOC23CC4CC(C2)CC([C@H](N)C(=O)N2[C@H](C#N)C[C@@H]5C[C@@H]52)(C4)C3)nn1)C[C@H](O)[C@@H](O)[C@H](O)[C@H](O)CO [Compound 21]
